# Data: US20220411422A1, “ERBB RECEPTOR INHIBITORS” (Dizal (Jiangsu) Pharmaceutical Co., Ltd., priority 2018, published 2022)
# What was measured:
# [1] = system: Human Pgp/BCRP transporter; experiment: Human Pgp/BCRP transporter substrate assessment; type: in vitro ADME
# [2] = Blood brain barrier penetration assay in monkeys; type: in vivo; conditions: CSF, oral; Table 5; monkey
# Description: In vitro blood, plasma and brain binding assay was carried out with equilibrium dialysis device. Diluted blood (1:1 with DPBS pH7.4), EDTA-anticoagulated plasma, and brain homogenate (1:3 with DPBS pH7.4) were spiked with 5 μM test compound (in triplicate) and dialyzed against equal volume of 150 μL 100 mM PBS buffer (pH7.4) at 37° C. for appropriate equilibration time in a slowly rotated plate. At the end of incubation, a 50 μL aliquot from the receiver side and a 5 μL from the donor chamber were taken. The 5 μL sample was further diluted with 45 μL of blank blood, plasma or brain homogenate. […] After centrifuging at 4000 rpm for 20 min, supernatant was diluted with 0.1% formic acid aqueous solution and analyzed for LC/MS/MS (API 4000, Applied Biosystems, Foster City). Unbound fraction (fu) of test compound were calculated by the ratio of the buffer side response to the brain homogenate/plasma/blood side response, and unbound fraction (fu,bl, fu,pl and fu,br) of test compound in non-diluted blood and tissue were calculated from measured fu in homogenate and diluted blood with the following equation: fu,bl (fu,br)=(1/D)/[(1/fu−1)+1/D)]. […]
# Total brain levels, expressed as brain/blood ratio (Kp,brain) were measured by AUC(brain)/AUC(blood or plasma) in rodents after oral administration. […]
# Kp,uu brain and Kp,uu CSF was calculated by the following equation: […]
# [3] = target: T1, wild type EGFR (Homo sapiens, UniProt P00533); experiment: pEGFR cellular activity in A431 cell line; type: cell-based
# T1 construct: which expresses wild type EGFR protein; endogenous in cells; host or cells: A431
# T1 sequence (P00533 25-1210): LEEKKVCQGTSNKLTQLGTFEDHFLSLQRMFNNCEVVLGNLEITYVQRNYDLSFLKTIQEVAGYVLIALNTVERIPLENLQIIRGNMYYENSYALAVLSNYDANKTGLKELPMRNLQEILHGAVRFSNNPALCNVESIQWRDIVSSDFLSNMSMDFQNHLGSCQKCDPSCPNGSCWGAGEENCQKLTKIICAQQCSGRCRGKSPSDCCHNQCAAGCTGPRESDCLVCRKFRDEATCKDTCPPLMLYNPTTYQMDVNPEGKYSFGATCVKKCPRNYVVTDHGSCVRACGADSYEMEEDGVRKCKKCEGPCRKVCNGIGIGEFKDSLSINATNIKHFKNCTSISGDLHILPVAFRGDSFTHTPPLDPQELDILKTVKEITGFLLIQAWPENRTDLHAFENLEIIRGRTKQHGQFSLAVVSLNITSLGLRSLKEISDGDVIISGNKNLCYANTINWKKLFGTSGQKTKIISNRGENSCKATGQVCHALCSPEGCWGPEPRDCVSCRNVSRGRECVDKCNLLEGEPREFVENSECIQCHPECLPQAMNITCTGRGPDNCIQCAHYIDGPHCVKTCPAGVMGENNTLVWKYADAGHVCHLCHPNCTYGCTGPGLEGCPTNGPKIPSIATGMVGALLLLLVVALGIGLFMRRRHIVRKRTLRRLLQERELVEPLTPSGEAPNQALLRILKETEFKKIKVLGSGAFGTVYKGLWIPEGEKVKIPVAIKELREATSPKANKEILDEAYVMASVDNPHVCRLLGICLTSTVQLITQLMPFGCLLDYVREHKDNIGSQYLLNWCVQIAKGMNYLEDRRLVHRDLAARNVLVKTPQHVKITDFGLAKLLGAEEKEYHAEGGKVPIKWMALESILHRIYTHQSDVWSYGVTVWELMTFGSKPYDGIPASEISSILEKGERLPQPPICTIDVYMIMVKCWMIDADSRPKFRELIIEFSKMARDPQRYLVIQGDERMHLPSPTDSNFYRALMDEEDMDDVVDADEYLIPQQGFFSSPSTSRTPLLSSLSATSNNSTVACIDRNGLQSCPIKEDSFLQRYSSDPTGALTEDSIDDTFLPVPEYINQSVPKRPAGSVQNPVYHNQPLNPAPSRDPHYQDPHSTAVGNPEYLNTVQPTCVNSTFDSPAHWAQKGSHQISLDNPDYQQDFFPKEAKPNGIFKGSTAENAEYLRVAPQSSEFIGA
# Description: A compound's activity of inhibition for EGFR WT can be evaluated with NCI-H838 (ATCC® CRL-5844™) and A431 cell line (the epidermoid carcinoma cell line A-431), which expresses wild type EGFR protein as the count screening to define the selectivity of the compound.
# The compounds' inhibition of target modulation were determined as follows: NCI-H838 cells and A431 cells were sorted in 96 well plates (20000 cells/well) with the DMEM medium containing 1% FBS overnight and then treated with tested compounds at a series of concentrations (3 μM, 0.3 μM, 0.1 μM, 0.03 μM, 0.01 μM, 0.003 μM, 0.001 μM, 0.0001 μM). The plates were incubated for 4 h at 37° C. with 5% CO2 followed by the stimulation of recombinant hEGF (100 ng/ml for 10 Min, RD, Cat #236-EG) and then the EGFR (Y1068) phosphorylation level of cells in each well were measured with MSD Kit (MULTI-SPOT®96 4-Spot HB Prototype EGFR Triplex […]: pEGFR (Tyr1068), pEGFR (Tyr1173), Total EGFR (Cat #N45ZB-1). The assay is a electrochemiluminescent method (MESO SCALE DISCOVERY) for determining both phosphorylated and total EGFR of cells with an MSD SECTOR® Imager and then the ratio of p-EGFR/total EGFR can be generated by the machine. The percentage of inhibition was used the formula: % inhibition=100×[1−(ratio of sample well−ratio of Min ctrl well)/(ratio of Max−Ratio of Min ctrl well)]. […]
# [4] = Clinical plasma and CSF PK in HER2+ MBC patients; type: in vivo, human; conditions: human, CSF, oral; patients with BM; read-out: averaged Kpuu,CSF
# Description: The plasma concentration of Compound 6 at the dosage of 50 to 200 mg following single dose or multiple doses were tested. […] In patients with BM, averaged Kpuu,CSF was around 1.82 and 0.78 for Compound 6 and its active metabolite Compound 16, respectively.
# [5] = Blood brain barrier penetration assay in rats (short oral absorption model with blood, plasma and brain binding); type: in vivo; conditions: male, Han Wistar, Table 5, rat
# Description: In vitro blood, plasma and brain binding assay was carried out with equilibrium dialysis device. […] At the end of incubation, a 50 μL aliquot from the receiver side and a 5 μL from the donor chamber were taken. The 5 μL sample was further diluted with 45 μL of blank blood, plasma or brain homogenate. Paired samples were matrix-matched with either buffer or blank matrix, and mixed for 2 min, and then precipitated with 150 μL cold acetonitrile with 100 ng/mL tolbutamide as internal standard. After centrifuging at 4000 rpm for 20 min, supernatant was diluted with 0.1% formic acid aqueous solution and analyzed for LC/MS/MS (API 4000, Applied Biosystems, Foster City). […] D is dilution factor. […] A Short oral absorption (SOA) model is an in-vivo screening model to identify brain penetration of a compound. Six male Han Wistar rats purchased from Beijing Vital River were orally dosed with the compound. […] Brain tissue was harvested and homogenized in 3× volume of 100 mM phosphate buffered saline (pH7.4). All samples were stored at ˜−70° C. prior to LC/MS/MS analysis. Standards were prepared by spiking blank plasma, blood, brain homogenate and artificial CSF. […] After 2 min vortex and 5 min centrifugation at 14,000 rpm, supernatant was analyzed by LC/MS/MS (API 4000, Applied Biosystems, Foster City). Two sets of standard curves were run at the beginning and end of each batch from blood sample analysis. For brain and CSF samples, one standard curve was analyzed along with test samples. Total brain levels, expressed as brain/blood ratio (Kp,brain) were measured by AUC(brain)/AUC(blood or plasma) in rodents after oral administration. Similarly, CSF levels represented by a ratio of CSF/blood exposure (Kp,CSF) were determined by AUC(CSF)/AUC(blood or plasma). Free fraction of test compound in biological matrix was determined by in vitro blood and brain binding assay. Kp,uu brain and Kp,uu CSF was calculated by the following equation: Kp,uu brain=AUC(brain)/AUC(blood or plasma)×(fubrain/fublood/plasma) and […] Moreover, the ability of Compounds 6 and 16 to cross BBB was assessed in both rat and monkey by measuring unbound brain-to-plasma partition ratio (Kpuu,brain) and unbound CSF-to-plasma partition ratio (Kpuu,CSF) with the method mentioned above.
# [6] = target: T2, pHER2 (Homo sapiens, UniProt P04626); experiment: pHER2 cellular activity in BT474c1 cell line; type: cell-based; conditions: BT474c1 cell line
# T2 construct: pHER2 in cells expressing HER2; endogenous in cells; host or cells: BT474c1
# T2 sequence (P04626 23-1255): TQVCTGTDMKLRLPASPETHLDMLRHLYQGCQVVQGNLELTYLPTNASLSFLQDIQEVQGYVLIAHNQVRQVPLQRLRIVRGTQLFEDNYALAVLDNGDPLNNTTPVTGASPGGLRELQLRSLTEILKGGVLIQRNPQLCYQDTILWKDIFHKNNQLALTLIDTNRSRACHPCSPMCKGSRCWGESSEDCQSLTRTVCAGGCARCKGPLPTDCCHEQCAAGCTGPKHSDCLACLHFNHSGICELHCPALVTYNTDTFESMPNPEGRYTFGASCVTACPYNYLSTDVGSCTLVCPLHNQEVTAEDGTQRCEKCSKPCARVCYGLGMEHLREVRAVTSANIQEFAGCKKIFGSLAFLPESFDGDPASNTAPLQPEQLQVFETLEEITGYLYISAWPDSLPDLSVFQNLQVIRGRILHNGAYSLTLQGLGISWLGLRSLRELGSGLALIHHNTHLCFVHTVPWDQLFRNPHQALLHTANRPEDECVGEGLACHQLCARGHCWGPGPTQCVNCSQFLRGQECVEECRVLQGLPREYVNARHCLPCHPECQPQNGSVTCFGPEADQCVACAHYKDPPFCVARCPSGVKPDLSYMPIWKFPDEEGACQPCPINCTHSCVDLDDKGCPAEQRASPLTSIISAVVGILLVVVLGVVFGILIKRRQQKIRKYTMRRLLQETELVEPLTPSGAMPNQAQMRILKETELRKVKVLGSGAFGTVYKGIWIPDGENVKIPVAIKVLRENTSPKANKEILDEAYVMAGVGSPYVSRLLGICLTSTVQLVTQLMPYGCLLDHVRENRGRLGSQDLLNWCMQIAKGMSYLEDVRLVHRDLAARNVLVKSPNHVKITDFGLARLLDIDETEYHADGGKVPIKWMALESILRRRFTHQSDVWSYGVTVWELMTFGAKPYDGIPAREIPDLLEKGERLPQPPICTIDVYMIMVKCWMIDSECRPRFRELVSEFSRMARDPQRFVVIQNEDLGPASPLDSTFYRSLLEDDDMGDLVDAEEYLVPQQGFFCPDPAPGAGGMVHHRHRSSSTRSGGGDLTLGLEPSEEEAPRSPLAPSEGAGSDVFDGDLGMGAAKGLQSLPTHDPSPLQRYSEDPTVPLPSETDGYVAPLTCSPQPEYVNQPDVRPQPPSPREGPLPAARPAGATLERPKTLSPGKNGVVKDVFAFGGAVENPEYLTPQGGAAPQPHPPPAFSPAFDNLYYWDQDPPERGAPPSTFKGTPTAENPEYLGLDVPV
# Description: A compound's activity of selective inhibition for HER2 wild type amplification can be evaluated with BT474 cell line (ATCC® HTB-20™). The cell line expressed phosphorylated HER2 protein and its proliferation depended on the amplified gene, which could be used for in vitro PD and anti-proliferation assays.
# The compounds' inhibition of target modulation were determined as follows: BT474 cells were sorted in 96 well plates (20000 cells/well) with the DMEM medium containing 10% FBS overnight and then treated with tested compounds at a series of concentrations (3 μM, 0.3 μM, 0.1 μM, 0.03 μM, 0.01 μM, 0.003 μM, 0.001 μM, 0.0001 μM). The plates were incubated for 4 h at 37° C. with 5% CO2 and then the HER2 (Y1248) phosphorylation level of cells in each well were measured with MSD Kit (Phospho-ErbB2 (Tyr1248) Assay Whole Cell Lysate Kit: Cat #K151CLD-3). The assay is a electrochemiluminescent method (MESO SCALE DISCOVERY) for determining both phosphorylated and total HER2 of cells with an MSD SECTOR® Imager and then the ratio of p-HER2/total HER2 can be generated by the machine. The percentage of inhibition was got from formula: % inhibition=100×[1−(ratio of sample well−ratio of Min ctrl well)/(ratio of Max−Ratio of Min ctrl well)]. The IC50 values were further calculated as the compounds concentration required for 50% inhibition in best-fit curves using Prism GraphPad 7.0 or Microsoft Xlfit software.
# [7] = target: T3, HER2 WT Amplification (Homo sapiens, UniProt P04626); experiment: HER2 (Y1248) phosphorylation in BT474 cells, MSD kit; type: cell-based; conditions: pHER2 (Y1248), 4 h
# T3 construct: The cell line expressed phosphorylated HER2 protein and its proliferation depended on the amplified gene; endogenous in cells; host or cells: BT474 (ATCC HTB-20)
# T3 sequence (P04626 23-1255): as above
# Description: The plates were incubated for 4 h at 37° C. with 5% CO2 and then the HER2 (Y1248) phosphorylation level of cells in each well were measured with MSD Kit (Phospho-ErbB2 ([…]) Assay Whole Cell Lysate Kit: Cat #[…]-3). The assay is a electrochemiluminescent method (MESO SCALE DISCOVERY) for determining both phosphorylated and total HER2 of cells with an MSD SECTOR® Imager and then the ratio of p-HER2/total HER2 can be generated by the machine.
# [8] = target: T4, EGFR WT (Homo sapiens, UniProt P00533); experiment: EGFR (Y1068) phosphorylation in NCI-H838 cells, MSD kit; type: cell-based; conditions: pEGFR (Y1068), 4 h then hEGF stimulation
# T4 construct: which expresses wild type EGFR protein; endogenous in cells; host or cells: NCI-H838 (ATCC CRL-5844)
# T4 sequence (P00533 25-1210): as the sequence (P00533 25-1210) above
smiles,measurement,setting,value
"CCOc1cc2ncc(C#N)c(Nc3ccc(OCc4ccccn4)c(Cl)c3)c2cc1NC(=O)/C=C/CN(C)C [Neratinib, reference compound]",Human Pgp/BCRP transporter substrate,[1],Yes
"COc1cc(O[C@H]2CCNCC2(F)F)c2c(Nc3ccc(Oc4ccn5ncnc5c4)c(C)c3)ncnc2c1 [Compound 16, (S)-N-(4-([1,2,4]triazolo[1,5-a]pyridin-7-yloxy)-3-methylphenyl)-5-((3,3-difluoropiperidin-4-yl)oxy)-7-methoxyquinazolin-4-amine]",Kp uu,[2],0.87
same,Human Pgp/BCRP transporter substrate,[1],No
same,IC50,[3],740 nM
same,Kp uu,[4],~0.78
same,Kp uu,"[5]; CSF, read-out: Kp,uu,CSF",0.23
same,Kp uu,"[5]; brain, read-out: Kp,uu,brain",0.12
same,IC50,[6],3.5 nM
"Cc1cc(Nc2ncnc3ccc(NC4=NC(C)(C)CO4)cc23)ccc1Oc1ccn2ncnc2c1 [ONT380, reference compound]",Human Pgp/BCRP transporter substrate,[1],Yes
same,Kp uu,"[5]; brain, read-out: Kp,uu,brain",0.016
"Cc1cc(Nc2ncnc3cccc(O[C@@H]4CCN(C)C[C@@H]4F)c23)ccc1Oc1ccn2ccnc2c1 (single isomer, unassigned) [Compound 11]",IC50,[7],13.1 nM
same,IC50,[8],> 3000 nM
